Measurements from patent US20220119354A1, “DIAMINO-SUBSTITUTED PYRIDINES AND PYRIMIDINES AS HERBICIDES” (FMC Corporation, priority 2019, published 2022).

Tests used:
Type in all cases: in vivo
[1] = system: pigweed (Amaranthus retroflexus); test: Test A postemergence, pigweed; details: 0 to 100 scale, 0 no effect, 100 complete control
Method in brief: (§1)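 Steps: plant seeds in loam/sand; spray soil (pre) or seedlings at 1–2 leaves, 2–10 cm (post) with compound in solvent plus surfactant; keep in greenhouse ~10 d; score injury visually against untreated controls, 0–100.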

kochia (Kochia scoparia) [2] = test: Test A preemergence, kochia; details: 0 to 100 scale, 0 is no effect, 100 is complete control
Method in brief: as §1

[3] = system: ducksalad (Heteranthera limosa); test: Test B flooded paddy test, ducksalad; details: Flood, 250 g ai/ha, applied to paddy water, 2-leaf stage, visual evaluation after 13 to 15 d
Method in brief: (§2)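 Plants grown to 2-leaf stage. Compounds applied directly into paddy water flooded 3 cm above soil, with that depth kept throughout. After 13–15 d in greenhouse, visual rating versus controls on a 0–100 scale (0 no effect, 100 complete control).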

[4] = system: ryegrass, Italian (Lolium multiflorum); test: Test A preemergence, Italian ryegrass; details: 0 to 100 scale, 0 is no effect, 100 is complete control
Method in brief: as §1

[5] = system: foxtail, giant (Setaria faberii); test: Test A postemergence, giant foxtail; details: 0 to 100 scale, 0 no effect, 100 complete control
Method in brief: as §1

corn (Zea mays) = test: Test A postemergence, corn; details: 0 to 100 scale, 0 no effect, 100 complete control
Method in brief: as §1

[6] = system: barnyardgrass (Echinochloa crus-galli); test: Test A postemergence, barnyardgrass; details: 0 to 100 scale, 0 no effect, 100 complete control
Method in brief: as §1

[7] = system: barnyardgrass (Echinochloa crus-galli); test: Test B flooded paddy test, barnyardgrass; details: Flood, 250 g ai/ha, applied to paddy water, 2-leaf stage, visual evaluation after 13 to 15 d
Method in brief: as §2

[8] = system: sedge, umbrella (small-flower umbrella sedge, Cyperus difformis); test: Test B flooded paddy test, umbrella sedge; details: Flood, 250 g ai/ha, applied to paddy water, 2-leaf stage, visual evaluation after 13 to 15 d
Method in brief: as §2

[9] = system: ryegrass, Italian (Lolium multiflorum); test: Test A postemergence, Italian ryegrass; details: 0 to 100 scale, 0 no effect, 100 complete control
Method in brief: as §1

[10] = system: ragweed (common ragweed, Ambrosia elatior); test: Test A preemergence, ragweed; details: 0 to 100 scale, 0 is no effect, 100 is complete control
Method in brief: as §1

[11] = system: pigweed (Amaranthus retroflexus); test: Test A preemergence, pigweed; details: 0 to 100 scale, 0 is no effect, 100 is complete control
Method in brief: as §1

[12] = system: blackgrass (Alopecurus myosuroides); test: Test A postemergence, blackgrass; details: 0 to 100 scale, 0 no effect, 100 complete control
Method in brief: as §1

[13] = system: wheat (Triticum aestivum); test: Test A postemergence, wheat; details: 0 to 100 scale, 0 no effect, 100 complete control
Method in brief: as §1

kochia (Kochia scoparia) [14] = test: Test A postemergence, kochia; details: 0 to 100 scale, 0 no effect, 100 complete control
Method in brief: as §1

[15] = system: galium (catchweed bedstraw, Galium aparine); test: Test A postemergence, galium; details: 0 to 100 scale, 0 no effect, 100 complete control
Method in brief: as §1

[16] = system: barnyardgrass (Echinochloa crus-galli); test: Test A preemergence, barnyardgrass; details: 0 to 100 scale, 0 is no effect, 100 is complete control
Method in brief: as §1

[17] = system: foxtail, giant (Setaria faberii); test: Test A preemergence, giant foxtail; details: 0 to 100 scale, 0 is no effect, 100 is complete control
Method in brief: as §1

[18] = system: ragweed (common ragweed, Ambrosia elatior); test: Test A postemergence, ragweed; details: 0 to 100 scale, 0 no effect, 100 complete control
Method in brief: as §1

rice (Oryza sativa) = test: Test B flooded paddy test, rice; details: Flood, 250 g ai/ha, applied to paddy water, 2-leaf stage, visual evaluation after 13 to 15 d
Method in brief: as §2

| SMILES | Plant response rating, Pigweed ([1]; 125 g ai/ha) | Plant response rating, Pigweed ([1]; 500 g ai/ha) | Kochia plant response rating (kochia (Kochia scoparia) [2]; 125 g ai/ha) | Kochia plant response rating (kochia (Kochia scoparia) [2]; 500 g ai/ha) | Plant response rating, Ducksalad (0 to 100 scale, 0 is no effect, 100 is complete control) [3] | Ryegrass, Italian plant response rating ([4]; 125 g ai/ha) | Ryegrass, Italian plant response rating ([4]; 500 g ai/ha) | Plant response rating, Foxtail, Giant ([5]; 125 g ai/ha) | Plant response rating, Foxtail, Giant ([5]; 500 g ai/ha) | Plant response rating, Corn (corn (Zea mays); 125 g ai/ha) | Plant response rating, Corn (corn (Zea mays); 500 g ai/ha) | Plant response rating, Barnyardgrass ([6]; 125 g ai/ha) | Plant response rating, Barnyardgrass ([6]; 500 g ai/ha) | Plant response rating, Barnyardgrass (0 to 100 scale, 0 is no effect, 100 is complete control) [7] | Plant response rating, Sedge, Umbrella (0 to 100 scale, 0 is no effect, 100 is complete control) [8] | Plant response rating, Ryegrass, Italian ([9]; 125 g ai/ha) | Plant response rating, Ryegrass, Italian ([9]; 500 g ai/ha) | Ragweed plant response rating ([10]; 125 g ai/ha) | Ragweed plant response rating ([10]; 500 g ai/ha) | Pigweed plant response rating ([11]; 125 g ai/ha) | other results |
| --- | --- | --- | --- | --- | --- | --- | --- | --- | --- | --- | --- | --- | --- | --- | --- | --- | --- | --- | --- | --- | --- |
| C[C@@H](Nc1nc(N)c(C(F)(F)F)c(C(F)(F)F)n1)C1Cc2ccccc2C1 [Compound 67] | 20 | 60 | 0 | 90 | 0 | 0 | 0 | 0 | 0 | 0 | 0 | 0 | 0 | 0 | 0 | 0 | 0 | 0 | 0 | 30 | Pigweed plant response rating ([11]; 500 g ai/ha): 90; Plant response rating, Blackgrass ([12]; 125 g ai/ha): 0; Plant response rating, Blackgrass ([12]; 500 g ai/ha): 0; Plant response rating, Wheat ([13]; 125 g ai/ha): 0; Plant response rating, Wheat ([13]; 500 g ai/ha): 0; Plant response rating, Kochia (kochia (Kochia scoparia) [14]; 125 g ai/ha): 50; Plant response rating, Kochia (kochia (Kochia scoparia) [14]; 500 g ai/ha): 70; Plant response rating, Galium ([15]; 125 g ai/ha): 20; Plant response rating, Galium ([15]; 500 g ai/ha): 40; Barnyardgrass plant response rating ([16]; 125 g ai/ha): 0; Barnyardgrass plant response rating ([16]; 500 g ai/ha): 0; Foxtail, Giant plant response rating ([17]; 125 g ai/ha): 0; Foxtail, Giant plant response rating ([17]; 500 g ai/ha): 0; Plant response rating, Ragweed ([18]; 125 g ai/ha): 0; Plant response rating, Ragweed ([18]; 500 g ai/ha): 0; Plant response rating, Rice (0 to 100 scale, 0 is no effect, 100 is complete control) (rice (Oryza sativa)): 0 |
| C[C@H](Nc1nc(N)c(C(F)(F)F)c(C(F)(F)F)n1)C1Cc2ccccc2C1 [Compound 68] | 0 | 0 | 0 | 0 | 0 | 0 | 0 | 0 | 0 | 20 | 0 | 0 | 0 | 0 | 0 | 0 | 0 | 0 | 0 | 0 | Pigweed plant response rating ([11]; 500 g ai/ha): 0; Plant response rating, Blackgrass ([12]; 125 g ai/ha): 0; Plant response rating, Blackgrass ([12]; 500 g ai/ha): 0; Plant response rating, Wheat ([13]; 125 g ai/ha): 0; Plant response rating, Wheat ([13]; 500 g ai/ha): 0; Plant response rating, Kochia (kochia (Kochia scoparia) [14]; 125 g ai/ha): 20; Plant response rating, Kochia (kochia (Kochia scoparia) [14]; 500 g ai/ha): 40; Plant response rating, Galium ([15]; 125 g ai/ha): 0; Plant response rating, Galium ([15]; 500 g ai/ha): 0; Barnyardgrass plant response rating ([16]; 125 g ai/ha): 0; Barnyardgrass plant response rating ([16]; 500 g ai/ha): 0; Foxtail, Giant plant response rating ([17]; 125 g ai/ha): 0; Foxtail, Giant plant response rating ([17]; 500 g ai/ha): 0; Plant response rating, Ragweed ([18]; 125 g ai/ha): 40; Plant response rating, Ragweed ([18]; 500 g ai/ha): 50; Plant response rating, Rice (0 to 100 scale, 0 is no effect, 100 is complete control) (rice (Oryza sativa)): 0 |
| C[C@H](Nc1ncc(C(F)(F)F)c(N)n1)c1cc2cccc(F)c2o1 [Compound 72] | 40 | 50 | 0 | 0 | 0 | 0 | 0 | 0 | 0 | 0 | 0 | 0 | 0 | 0 | 0 | 0 | 0 | 0 | 0 | 0 | Pigweed plant response rating ([11]; 500 g ai/ha): 80; Plant response rating, Blackgrass ([12]; 125 g ai/ha): 0; Plant response rating, Blackgrass ([12]; 500 g ai/ha): 0; Plant response rating, Wheat ([13]; 125 g ai/ha): 0; Plant response rating, Wheat ([13]; 500 g ai/ha): 0; Plant response rating, Kochia (kochia (Kochia scoparia) [14]; 125 g ai/ha): 0; Plant response rating, Kochia (kochia (Kochia scoparia) [14]; 500 g ai/ha): 30; Plant response rating, Galium ([15]; 125 g ai/ha): 0; Plant response rating, Galium ([15]; 500 g ai/ha): 40; Barnyardgrass plant response rating ([16]; 125 g ai/ha): 0; Barnyardgrass plant response rating ([16]; 500 g ai/ha): 0; Foxtail, Giant plant response rating ([17]; 125 g ai/ha): 0; Foxtail, Giant plant response rating ([17]; 500 g ai/ha): 0; Plant response rating, Ragweed ([18]; 125 g ai/ha): 0; Plant response rating, Ragweed ([18]; 500 g ai/ha): 30; Plant response rating, Rice (0 to 100 scale, 0 is no effect, 100 is complete control) (rice (Oryza sativa)): 0 |
